ChEMBL document CHEMBL4177586, “Small molecule adjuvants that suppress both chromosomal and mcr-1 encoded colistin-resistance and amplify colistin efficacy in polymyxin-susceptible bacteria” (Bioorg Med Chem, 2017)
Converted amounts (≈) assume the structure as drawn.

Columns and labels:
Acinetobacter baumannii [1] = test: Potentiation of colistin-induced antimicrobial activity against colistin-resistant Acinetobacter baumannii PM4119 assessed as reduction in colistin MIC at 60 uM incubated for overnight duration by CLSI based method relative to colistin alone control; assay type: functional
Klebsiella pneumoniae [2] = test: Potentiation of colistin-induced antimicrobial activity against colistin-resistant Klebsiella pneumoniae C5 assessed as colistin MIC at 30 uM incubated for overnight duration by CLSI based method (reference value: 128 ug/ml); assay type: functional
Acinetobacter baumannii [3] = test: Potentiation of colistin-induced antimicrobial activity against colistin-resistant Acinetobacter baumannii PM3942 assessed as colistin MIC at 60 uM incubated for overnight duration by CLSI based method (reference value: 512 ug/ml); assay type: functional
Klebsiella pneumoniae [4] = test: Potentiation of colistin-induced antimicrobial activity against colistin-resistant Klebsiella pneumoniae C3 assessed as reduction in colistin MIC at 15 uM incubated for overnight duration by CLSI based method relative to colistin alone control; assay type: functional
Klebsiella pneumoniae [5] = test: Potentiation of colistin-induced antimicrobial activity against colistin-resistant Klebsiella pneumoniae C5 assessed as reduction in colistin MIC at 15 uM incubated for overnight duration by CLSI based method relative to colistin alone control; assay type: functional
Klebsiella pneumoniae [6] = test: Potentiation of colistin-induced antimicrobial activity against colistin-resistant Klebsiella pneumoniae C3 assessed as reduction in colistin MIC at 30 uM incubated for overnight duration by CLSI based method relative to colistin alone control; assay type: functional
Escherichia coli [7] = test: Potentiation of colistin-induced antimicrobial activity against Escherichia coli ATCC 25922 expressing mcr1 gene assessed as reduction in colistin MIC at 60 uM incubated for overnight duration by CLSI based method relative to colistin alone control; assay type: functional
Acinetobacter baumannii [8] = test: Potentiation of colistin-induced antimicrobial activity against Acinetobacter baumannii SM1536 assessed as reduction in colistin MIC at 30 uM incubated for overnight duration by CLSI based method relative to colistin alone control; assay type: functional
Acinetobacter baumannii [9] = test: Potentiation of colistin-induced antimicrobial activity against Acinetobacter baumannii ATCC 17978 assessed as reduction in colistin MIC at 30 uM incubated for overnight duration by CLSI based method relative to colistin alone control; assay type: functional
Acinetobacter baumannii [10] = test: Potentiation of colistin-induced antimicrobial activity against Acinetobacter baumannii SM1536 expressing mcr1 gene assessed as reduction in colistin MIC at 60 uM incubated for overnight duration by CLSI based method relative to colistin alone control; assay type: functional
Acinetobacter baumannii [11] = test: Potentiation of colistin-induced antimicrobial activity against Acinetobacter baumannii SM1536 expressing mcr1 gene assessed as colistin MIC at 60 uM incubated for overnight duration by CLSI based method (reference value: 64 ug/ml); assay type: functional
Acinetobacter baumannii [12] = test: Toxicity against Acinetobacter baumannii ATCC 17978 incubated for overnight duration by CLSI based method; assay type: organism-based; conditions: in vivo
Klebsiella pneumoniae [13] = test: Potentiation of colistin-induced antimicrobial activity against Klebsiella pneumoniae 2210291 expressing mcr1 gene assessed as colistin MIC at 30 uM incubated for overnight duration by CLSI based method (reference value: 16 ug/ml); assay type: functional
Escherichia coli [14] = test: Potentiation of colistin-induced antimicrobial activity against Escherichia coli YD626 expressing mcr1 gene assessed as colistin MIC at 60 uM incubated for overnight duration by CLSI based method (reference value: 4 ug/ml); assay type: functional
Escherichia coli [15] = test: Potentiation of colistin-induced antimicrobial activity against Escherichia coli YD626 assessed as colistin MIC at 30 uM incubated for overnight duration by CLSI based method (reference value: 1 ug/ml); assay type: functional
Acinetobacter baumannii [16] = test: Potentiation of colistin-induced antimicrobial activity against colistin-resistant Acinetobacter baumannii PM4112 assessed as colistin MIC at 15 uM incubated for overnight duration by CLSI based method (reference value: 1024 ug/ml); assay type: functional
Acinetobacter baumannii [17] = test: Potentiation of colistin-induced antimicrobial activity against Acinetobacter baumannii ATCC 17978 expressing mcr1 gene assessed as colistin MIC at 60 uM incubated for overnight duration by CLSI based method (reference value: 16 ug/ml); assay type: functional
Escherichia coli [18] = test: Potentiation of colistin-induced antimicrobial activity against Escherichia coli YD626 expressing mcr1 gene assessed as reduction in colistin MIC at 60 uM incubated for overnight duration by CLSI based method relative to colistin alone control; assay type: functional
Klebsiella pneumoniae [19] = test: Potentiation of colistin-induced antimicrobial activity against Klebsiella pneumoniae 2210291 expressing mcr1 gene assessed as colistin MIC at 60 uM incubated for overnight duration by CLSI based method (reference value: 16 ug/ml); assay type: functional
Acinetobacter baumannii [20] = test: Potentiation of colistin-induced antimicrobial activity against colistin-resistant Acinetobacter baumannii PM3942 assessed as colistin MIC at 30 uM incubated for overnight duration by CLSI based method (reference value: 512 ug/ml); assay type: functional
Klebsiella pneumoniae [21] = test: Potentiation of colistin-induced antimicrobial activity against colistin-resistant Klebsiella pneumoniae B9 assessed as colistin MIC at 60 uM incubated for overnight duration by CLSI based method (reference value: 512 ug/ml); assay type: functional
Acinetobacter baumannii [22] = test: Potentiation of colistin-induced antimicrobial activity against colistin-resistant Acinetobacter baumannii PM3942 assessed as reduction in colistin MIC at 15 uM incubated for overnight duration by CLSI based method relative to colistin alone control; assay type: functional
Klebsiella pneumoniae [23] = test: Potentiation of colistin-induced antimicrobial activity against colistin-resistant Klebsiella pneumoniae C5 assessed as reduction in colistin MIC at 30 uM incubated for overnight duration by CLSI based method relative to colistin alone control; assay type: functional
Escherichia coli [24] = test: Potentiation of colistin-induced antimicrobial activity against Escherichia coli YD626 assessed as reduction in colistin MIC at 30 uM incubated for overnight duration by CLSI based method relative to colistin alone control; assay type: functional
Acinetobacter baumannii [25] = test: Potentiation of colistin-induced antimicrobial activity against Acinetobacter baumannii SM1536 expressing mcr1 gene assessed as reduction in colistin MIC at 15 uM incubated for overnight duration by CLSI based method relative to colistin alone control; assay type: functional
Klebsiella pneumoniae [26] = test: Potentiation of colistin-induced antimicrobial activity against colistin-resistant Klebsiella pneumoniae C3 assessed as colistin MIC at 30 uM incubated for overnight duration by CLSI based method (reference value: 512 ug/ml); assay type: functional
Klebsiella pneumoniae [27] = test: Potentiation of colistin-induced antimicrobial activity against colistin-resistant Klebsiella pneumoniae C3 assessed as colistin MIC at 15 uM incubated for overnight duration by CLSI based method (reference value: 512 ug/ml); assay type: functional
Escherichia coli [28] = test: Toxicity against Escherichia coli ATCC 25922 expressing mcr1 gene incubated for overnight duration by CLSI based method; assay type: organism-based; conditions: in vivo
Acinetobacter baumannii [29] = test: Toxicity against Acinetobacter baumannii SM1536 expressing mcr1 gene incubated for overnight duration by CLSI based method; assay type: organism-based; conditions: in vivo
Escherichia coli [30] = test: Toxicity against Escherichia coli YD626 expressing mcr1 gene incubated for overnight duration by CLSI based method; assay type: organism-based; conditions: in vivo
Acinetobacter baumannii [31] = test: Toxicity against Acinetobacter baumannii ATCC 17978 expressing mcr1 gene incubated for overnight duration by CLSI based method; assay type: organism-based; conditions: in vivo
Klebsiella pneumoniae [32] = test: Toxicity against Klebsiella pneumoniae 2210291 expressing mcr1 gene incubated for overnight duration by CLSI based method; assay type: organism-based; conditions: in vivo
Acinetobacter baumannii [33] = test: Toxicity against multidrug resistant Acinetobacter baumannii 5075 incubated for overnight duration by CLSI based method; assay type: organism-based; conditions: in vivo

Row | Structure (SMILES) | fold change (FC) (Acinetobacter baumannii [8]) | fold change (FC) (Acinetobacter baumannii [9]) | MIC (Acinetobacter baumannii [12]) [µM] | MIC (Klebsiella pneumoniae [13]) [µg/mL] | MIC (Escherichia coli [15]) [µg/mL] | fold change (FC) (Escherichia coli [24]) | fold change (FC) (Acinetobacter baumannii [25]) | MIC (Escherichia coli [28]) [µM] | MIC (Acinetobacter baumannii [29]) [µM] | MIC (Escherichia coli [30]) [µM] | MIC (Acinetobacter baumannii [31]) [µM] | MIC (Klebsiella pneumoniae [32]) [µM] | also measured
1 | CCCCCc1ccc(C(=O)NCCn2cc(CCCCCc3cnc(N)n3Cc3ccc(CCCC)cc3)nn2)cc1 | >2048 | >2048 | > 200 | 0.25 | < 0.00049 | >2048 | 8 |  |  |  |  |  | fold change (FC) (Acinetobacter baumannii [1]): 512; MIC (Klebsiella pneumoniae [2]): 4 µg/mL; MIC (Acinetobacter baumannii [3]): 4 µg/mL; fold change (FC) (Klebsiella pneumoniae [4]): 8; fold change (FC) (Klebsiella pneumoniae [5]): 4; fold change (FC) (Klebsiella pneumoniae [6]): 32; fold change (FC) (Escherichia coli [7]): 256; fold change (FC) (Acinetobacter baumannii [10]): 64; MIC (Acinetobacter baumannii [11]): 1 µg/mL; MIC (Escherichia coli [14]): < 0.002 µg/mL; MIC (Acinetobacter baumannii [16]): 32 µg/mL; MIC (Acinetobacter baumannii [17]): 0.25 µg/mL; fold change (FC) (Escherichia coli [18]): >2048; MIC (Klebsiella pneumoniae [19]): 0.125 µg/mL; MIC (Acinetobacter baumannii [20]): 16 µg/mL; MIC (Klebsiella pneumoniae [21]): 4 µg/mL; fold change (FC) (Acinetobacter baumannii [22]): 16; fold change (FC) (Klebsiella pneumoniae [23]): 32; MIC (Klebsiella pneumoniae [26]): 16 µg/mL; MIC (Klebsiella pneumoniae [27]): 64 µg/mL
2 | CCCCCCc1ccc(-c2cn(C(C)C)c(N)n2)cc1 | 128 | 128 | 200 (≈ 57.1 µg/mL) | 0.5 | 0.00049 | 2048 | 4 | > 200 | > 200 | > 200 | > 200 | > 200 | 
3 | CCCCCCc1ccc(-c2cn(CC)c(N)n2)cc1 | 256 | 512 | 100 (≈ 27.1 µg/mL) | 0.125 | 0.00049 | 2048 | 8 | 50 (≈ 13.6 µg/mL) | > 200 | 100 (≈ 27.1 µg/mL) | > 200 | > 200 | MIC (Acinetobacter baumannii [33]): 200 µM (≈ 54.3 µg/mL)
